# pIC50: −log10 of the molar value.
# System: 349418-098-R-PDC complex spheroid growth
# Assay: Anticancer human tumor 349418-098-R-PDC patient-derived lung adenocarcinoma cell line growth inhibition [AhR]
# Details: for pIC50: curve of first compound; for viability, T/C: stronger effect = lower value
# In short: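 Spheroids combined tumor cells with HUVEC endothelial cells and human MSCs as stroma. AhR antagonists were paired with standard or investigational drugs, each dosed in half-log steps down from near clinical Cmax, or from 10 microM where Cmax was unknown.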
# [1] = second compound 0.1 µM, first compound 0.0316 µM
# [2] = second compound 0.1 µM, first compound 0.1 µM
# [3] = second compound 0.1 µM, first compound 0.316 µM
# [4] = second compound 0.1 µM, first compound 1 µM
# [5] = second compound 0.1 µM, first compound 3.16 µM
# [6] = second compound 0.1 µM, first compound 10 µM
# [7] = second compound 0.316 µM, first compound 0.0316 µM
# [8] = second compound 0.316 µM, first compound 0.1 µM
# [9] = second compound 0.316 µM, first compound 0.316 µM
# [10] = second compound 0.316 µM, first compound 1 µM
# [11] = second compound 0.316 µM, first compound 3.16 µM
# [12] = second compound 0.316 µM, first compound 10 µM
# [13] = second compound 1 µM, first compound 0.0316 µM
# [14] = second compound 1 µM, first compound 0.1 µM
# [15] = second compound 1 µM, first compound 0.316 µM
# [16] = second compound 1 µM, first compound 1 µM
# [17] = second compound 1 µM, first compound 3.16 µM
# [18] = second compound 1 µM, first compound 10 µM
# [19] = second compound 3.16 µM, first compound 0.0316 µM
# [20] = second compound 3.16 µM, first compound 0.1 µM
# [21] = second compound 3.16 µM, first compound 0.316 µM
# [22] = second compound 3.16 µM, first compound 1 µM
# [23] = second compound 3.16 µM, first compound 3.16 µM
# [24] = second compound 3.16 µM, first compound 10 µM
# [25] = second compound 10 µM, first compound 0.0316 µM
# [26] = second compound 10 µM, first compound 0.1 µM
# [27] = second compound 10 µM, first compound 0.316 µM
# [28] = second compound 10 µM, first compound 1 µM
# [29] = second compound 10 µM, first compound 3.16 µM
# [30] = second compound 10 µM, first compound 10 µM
# 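Further: spheroids exposed to agents for seven days before luminescence viability read.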
# 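Wherever viability, T/C is given: spheroids also contain HUVEC endothelial cells and human MSC stroma.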
compound,measurement,setting,value
CC(C)CC(NC(=O)C(Cc1ccccc1)NC(=O)c1cnccn1)B(O)O (stereo not given) + CC(CO)NC(=O)c1cc(-c2ccc(Cl)cc2)nn(-c2cnn(C)c2)c1=O,pIC50,second compound 0.1 µM,> 9.02
same,pIC50,second compound 0.316 µM,> 9.02
same,pIC50,second compound 1 µM,> 9.02
same,pIC50,second compound 3.16 µM,> 9.02
same,pIC50,second compound 10 µM,> 9.02
same,"viability, T/C","second compound 0.1 µM, first compound 0.000949 µM",23.1%
same,"viability, T/C","second compound 0.1 µM, first compound 0.003 µM",6.06%
same,"viability, T/C","second compound 0.1 µM, first compound 0.00949 µM",3.66%
same,"viability, T/C","second compound 0.1 µM, first compound 0.03 µM",2.47%
same,"viability, T/C","second compound 0.1 µM, first compound 0.0949 µM",2.75%
same,"viability, T/C","second compound 0.1 µM, first compound 0.3 µM",1.27%
same,"viability, T/C","second compound 0.316 µM, first compound 0.000949 µM",24.2%
same,"viability, T/C","second compound 0.316 µM, first compound 0.003 µM",6.19%
same,"viability, T/C","second compound 0.316 µM, first compound 0.00949 µM",4.09%
same,"viability, T/C","second compound 0.316 µM, first compound 0.03 µM",1.94%
same,"viability, T/C","second compound 0.316 µM, first compound 0.0949 µM",2.38%
same,"viability, T/C","second compound 0.316 µM, first compound 0.3 µM",1.96%
same,"viability, T/C","second compound 1 µM, first compound 0.000949 µM",22.5%
same,"viability, T/C","second compound 1 µM, first compound 0.003 µM",5.68%
same,"viability, T/C","second compound 1 µM, first compound 0.00949 µM",2.71%
same,"viability, T/C","second compound 1 µM, first compound 0.03 µM",2.61%
same,"viability, T/C","second compound 1 µM, first compound 0.0949 µM",1.69%
same,"viability, T/C","second compound 1 µM, first compound 0.3 µM",1.84%
same,"viability, T/C","second compound 3.16 µM, first compound 0.000949 µM",21.1%
same,"viability, T/C","second compound 3.16 µM, first compound 0.003 µM",6.77%
same,"viability, T/C","second compound 3.16 µM, first compound 0.00949 µM",2.56%
same,"viability, T/C","second compound 3.16 µM, first compound 0.03 µM",1.42%
same,"viability, T/C","second compound 3.16 µM, first compound 0.0949 µM",1.44%
same,"viability, T/C","second compound 3.16 µM, first compound 0.3 µM",1.95%
same,"viability, T/C","second compound 10 µM, first compound 0.000949 µM",23.2%
same,"viability, T/C","second compound 10 µM, first compound 0.003 µM",6.76%
same,"viability, T/C","second compound 10 µM, first compound 0.00949 µM",2.77%
same,"viability, T/C","second compound 10 µM, first compound 0.03 µM",1.65%
same,"viability, T/C","second compound 10 µM, first compound 0.0949 µM",1.33%
same,"viability, T/C","second compound 10 µM, first compound 0.3 µM",1.68%
COc1cc(Nc2ncc3c(n2)-c2ccc(Cl)cc2C(c2c(F)cccc2OC)=NC3)ccc1C(=O)O + CC(CO)NC(=O)c1cc(-c2ccc(Cl)cc2)nn(-c2cnn(C)c2)c1=O,pIC50,second compound 0.1 µM,7.03
same,pIC50,second compound 0.316 µM,7.32
same,pIC50,second compound 1 µM,6.97
same,pIC50,second compound 3.16 µM,7.33
same,pIC50,second compound 10 µM,> 7.50
same,"viability, T/C",[1],66.3%
same,"viability, T/C",[2],49.3%
same,"viability, T/C",[3],33.4%
same,"viability, T/C",[4],37.4%
same,"viability, T/C",[5],31.7%
same,"viability, T/C",[6],23.1%
same,"viability, T/C",[7],58.7%
same,"viability, T/C",[8],33.7%
same,"viability, T/C",[9],29.5%
same,"viability, T/C",[10],29.2%
same,"viability, T/C",[11],28.1%
same,"viability, T/C",[12],26%
same,"viability, T/C",[13],71.9%
same,"viability, T/C",[14],51.3%
same,"viability, T/C",[15],27.8%
same,"viability, T/C",[16],31.3%
same,"viability, T/C",[17],29.5%
same,"viability, T/C",[18],32%
same,"viability, T/C",[19],55.2%
same,"viability, T/C",[20],41.3%
same,"viability, T/C",[21],32.8%
same,"viability, T/C",[22],28%
same,"viability, T/C",[23],28.8%
same,"viability, T/C",[24],29.7%
same,"viability, T/C",[25],38.4%
same,"viability, T/C",[26],23.4%
same,"viability, T/C",[27],32%
same,"viability, T/C",[28],24.8%
same,"viability, T/C",[29],20.9%
same,"viability, T/C",[30],24.2%
NS(=O)(=O)OCC1CC(n2ccc3c(NC4CCc5ccccc54)ncnc32)CC1O (stereo not given) + CC(CO)NC(=O)c1cc(-c2ccc(Cl)cc2)nn(-c2cnn(C)c2)c1=O,pIC50,second compound 0.1 µM,6.73
same,pIC50,second compound 0.316 µM,6.83
same,pIC50,second compound 1 µM,6.97
same,pIC50,second compound 3.16 µM,7.31
same,pIC50,second compound 10 µM,> 7.50
same,"viability, T/C",[1],83.2%
same,"viability, T/C",[2],65.6%
same,"viability, T/C",[3],37.1%
same,"viability, T/C",[4],18.4%
same,"viability, T/C",[5],13.4%
same,"viability, T/C",[6],8.51%
same,"viability, T/C",[7],92.7%
same,"viability, T/C",[8],62.9%
same,"viability, T/C",[9],24.7%
same,"viability, T/C",[10],19.9%
same,"viability, T/C",[11],11.2%
same,"viability, T/C",[12],8.21%
same,"viability, T/C",[13],68.8%
same,"viability, T/C",[14],52.2%
same,"viability, T/C",[15],24.5%
same,"viability, T/C",[16],16.3%
same,"viability, T/C",[17],10.8%
same,"viability, T/C",[18],9.16%
same,"viability, T/C",[19],54.8%
same,"viability, T/C",[20],42.6%
same,"viability, T/C",[21],22.7%
same,"viability, T/C",[22],14.7%
same,"viability, T/C",[23],10.7%
same,"viability, T/C",[24],8.74%
same,"viability, T/C",[25],33.8%
same,"viability, T/C",[26],30.9%
same,"viability, T/C",[27],25.7%
same,"viability, T/C",[28],16.7%
same,"viability, T/C",[29],10.9%
same,"viability, T/C",[30],8.91%
O=C(C=Cc1cccc(S(=O)(=O)Nc2ccccc2)c1)NO + CC(CO)NC(=O)c1cc(-c2ccc(Cl)cc2)nn(-c2cnn(C)c2)c1=O,pIC50,second compound 0.1 µM,6.24
same,pIC50,second compound 0.316 µM,6.21
same,pIC50,second compound 1 µM,6.20
same,pIC50,second compound 3.16 µM,6.25
same,pIC50,second compound 10 µM,6.35
same,"viability, T/C",[1],85.8%
same,"viability, T/C",[2],94%
same,"viability, T/C",[3],69.8%
same,"viability, T/C",[4],30%
same,"viability, T/C",[5],8.25%
same,"viability, T/C",[6],1.75%
same,"viability, T/C",[7],110%
same,"viability, T/C",[8],101%
same,"viability, T/C",[9],75.5%
same,"viability, T/C",[10],31.5%
same,"viability, T/C",[11],7.87%
same,"viability, T/C",[12],1.86%
same,"viability, T/C",[13],99.8%
same,"viability, T/C",[14],109%
same,"viability, T/C",[15],77%
same,"viability, T/C",[16],31.8%
same,"viability, T/C",[17],8.85%
same,"viability, T/C",[18],1.91%
same,"viability, T/C",[19],90.7%
same,"viability, T/C",[20],102%
same,"viability, T/C",[21],68.4%
same,"viability, T/C",[22],30.1%
same,"viability, T/C",[23],7.44%
same,"viability, T/C",[24],1.82%
same,"viability, T/C",[25],72.7%
same,"viability, T/C",[26],82.5%
same,"viability, T/C",[27],53.6%
same,"viability, T/C",[28],32.1%
same,"viability, T/C",[29],7.16%
same,"viability, T/C",[30],1.98%
